Laboratory results from ChEMBL document CHEMBL1201862, “PubChem BioAssay data set” (2004).
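1) Cells in 96-well plates. 2) Compound, 48 h, 5 concentrations. 3) Linear interpolation between surrounding doses. 4) Unreached endpoint = highest concentration. GI50 = concentration required for 50% inhibition of growth.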 Activity calls are given as the source filed them. Cut-off read from the data, not from the text of the source: active = GI50 up to about 1.1 µM and inactive = higher.

Experiments:
Assay in all cases: NCI-60 cell line screen, 48 h
[1] = tested on: UACC-257
[2] = tested on: Malme-3M
[3] = tested on: SK-MEL-28
[4] = tested on: SNB-75
[5] = tested on: MDA-MB-231
[6] = tested on: U-251
[7] = tested on: NCI-H226
[8] = tested on: RPMI-8226
[9] = tested on: OVCAR-8
[10] = tested on: SW-620
[11] = tested on: NCI/ADR-RES
[12] = tested on: A549
[13] = tested on: IGROV-1
[14] = tested on: HCT-15
[15] = tested on: PC-3
[16] = tested on: CCRF-CEM
[17] = tested on: SNB-19
[18] = tested on: T47D
[19] = tested on: Hs-578T
[20] = tested on: NCI-H522
[21] = tested on: SK-OV-3
[22] = tested on: MDA-MB-435
[23] = tested on: OVCAR-4
[24] = tested on: SR
[25] = tested on: LOX IMVI
[26] = tested on: 786-0
[27] = tested on: EKVX
[28] = tested on: MOLT-4
[29] = tested on: HCT-116
[30] = tested on: TK-10
[31] = tested on: OVCAR-3
[32] = tested on: A498
[33] = tested on: ACHN
[34] = tested on: DU-145
[35] = tested on: COLO 205
[36] = tested on: BT-549
[37] = tested on: MCF7
[38] = tested on: SN12C
[39] = tested on: SK-MEL-2
[40] = tested on: HOP-92
[41] = tested on: SF-295
[42] = tested on: HT-29
[43] = tested on: MDA-N
[44] = tested on: KM12
[45] = tested on: CAKI-1
[46] = tested on: RXF 393
[47] = tested on: NCI-H23
[48] = tested on: NCI-H460
[49] = tested on: HOP-62
[50] = tested on: SK-MEL-5
[51] = tested on: SF-539
[52] = tested on: UACC-62
[53] = tested on: M14
[54] = tested on: K562
[55] = tested on: HL-60
[56] = tested on: OVCAR-5

O=C(O)CCc1nc(-c2ccccc2)c(-c2ccccc2)o1 [OXAPROZIN]
GI50 [1]: > 100 µM (inactive) | GI50 [2]: > 100 µM (inactive) | GI50 [3]: > 100 µM (inactive) | GI50 [4]: > 100 µM (inactive) | GI50 [5]: > 100 µM (inactive) | GI50 [6]: > 100 µM (inactive) | GI50 [7]: > 100 µM (inactive) | GI50 [8]: 74.8 µM (inactive) | GI50 [9]: > 100 µM (inactive) | GI50 [10]: > 100 µM (inactive) | GI50 [11]: > 100 µM (inactive) | GI50 [12]: > 100 µM (inactive) | GI50 [13]: > 100 µM (inactive) | GI50 [14]: > 100 µM | GI50 [15]: > 100 µM (inactive) | GI50 [16]: > 100 µM (inactive) | GI50 [17]: > 100 µM (inactive) | GI50 [18]: 74.5 µM (inactive) | GI50 [19]: > 100 µM (inactive) | GI50 [20]: > 100 µM (inactive) | GI50 [21]: > 100 µM (inactive) | GI50 [22]: > 100 µM (inactive) | GI50 [23]: > 100 µM (inactive) | GI50 [24]: > 100 µM (inactive) | GI50 [25]: > 100 µM (inactive) | GI50 [26]: > 100 µM (inactive) | GI50 [27]: > 100 µM (inactive) | GI50 [28]: 84.1 µM (inactive) | GI50 [29]: > 100 µM (inactive) | GI50 [30]: > 100 µM (inactive) | GI50 [31]: > 100 µM (inactive) | GI50 [32]: > 100 µM (inactive) | GI50 [33]: > 100 µM (inactive) | GI50 [34]: > 100 µM (inactive) | GI50 [35]: > 100 µM (inactive) | GI50 [36]: > 100 µM (inactive) | GI50 [37]: > 100 µM (inactive) | GI50 [38]: > 100 µM (inactive) | GI50 [39]: > 100 µM (inactive) | GI50 [40]: > 100 µM (inactive) | GI50 [41]: > 100 µM (inactive) | GI50 [42]: > 100 µM (inactive) | GI50 [43]: > 100 µM (inactive) | GI50 [44]: > 100 µM (inactive) | GI50 [45]: > 100 µM (inactive) | GI50 [46]: > 100 µM (inactive) | GI50 [47]: > 100 µM (inactive) | GI50 [48]: > 100 µM (inactive) | GI50 [49]: > 100 µM (inactive) | GI50 [50]: > 100 µM (inactive) | GI50 [51]: > 100 µM (inactive) | GI50 [52]: > 100 µM (inactive) | GI50 [53]: > 100 µM (inactive) | GI50 [54]: > 100 µM (inactive) | GI50 [55]: > 100 µM (inactive) | GI50 [56]: > 100 µM (inactive)
